Test results as given in US9663513B2, “Pyrimidine PDE10 inhibitors” (Merck Sharp & Dohme Corp., priority 2012, dated 2017).

Each compound was assayed against human PDE10A2 (Homo sapiens (Human), UniProt Q9Y233) (assay: PDE10 fluorescence polarization (IMAP FP) inhibition assay). Settings: human PDE10A2 from transfected AD293 cells; FAM-labeled cAMP 50 nM; apparent inhibition constant; read-out: PDE10A Ki.
Assay type: biochemical
Description: The activity of the compounds in accordance with the present invention as PDE10 inhibitors may be readily determined without undue experimentation using a fluorescence polarization (FP) methodology that is well known in the art (Huang, W., et al., J. Biomol Screen, 2002, 7: 215).
In a typical experiment the PDE10 inhibitory activity of the compounds of the present invention was determined in accordance with the following experimental method. PDE10A2 was amplified from human fetal brain cDNA (Clontech, Mountain View, Calif.) using a forward primer corresponding to nucleotides 56-77 of human PDE10A2 (Accession No. AF127480, Genbank Identifier 4894716), containing a Kozak consensus sequence, and a reverse primer corresponding to nucleotides 2406-2413 of human PDE10A2 (Accession No. AF127480, Genbank Identifier 4894716). Amplification with Easy-A polymerase (Stratagene, La Jolla, Calif.) was 95° C. for 2 minutes followed by thirty three cycles of 95° C. for 40 seconds, 55° C. for 30 seconds, and 72° C. for 2 minutes 48 seconds. Final extension was 72° C. for 7 minutes. The PCR product was TA cloned into pcDNA3.2-TOPO (Invitrogen, Carlsbad, Calif.) according to standard protocol. AD293 cells with 70-80% confluency were transiently transfected with human PDE10A2/pcDNA3.2-TOPO using Lipofectamine 2000 according to manufacturer specifications (Invitrogen, Carlsbad, Calif.). Cells were harvested 48 hours post-transfection and lysed by sonication (setting 3, 10×5 sec pulses) in a buffer containing 20 mM HEPES, 1 mM EDTA and protease inhibitor cocktail (Roche). Lysate was collected by centrifugation at 75,000×g for 20 minutes. Supernatant containing the cytoplasmic fraction was used for evaluation of PDE10A2 activity. The fluorescence polarization assay for cyclic nucleotide phosphodiesterases was performed using an IMAP® FP kit supplied by Molecular Devices, Sunnyvale, Calif. (product # R8139). IMAP® technology has been applied previously to phosphodiesterase assays (Huang, W., et al., J. Biomol Screen, 2002, 7: 215). Assays were performed at room temperature in 384-well microtiter plates with an incubation volume of 20.2 μL. Solutions of test compounds were prepared in DMSO and serially diluted with DMSO to yield 8 μL of each of 10 solutions differing by 3-fold in concentration, at 32 serial dilutions per plate. […] 0% of inhibition is determined by using DMSO (1% final concentrations).
A Labcyte Echo 555 (Labcyte, Sunnyvale, Calif.) is used to dispense 200 nL from each well of the titration plate to the 384 well assay plate. A solution of enzyme (1/1600 dilution from aliquots; sufficient to produce 20% substrate conversion) and a separate solution of FAM-labeled cAMP PDE from Molecular Devices (product # R7506), at a final concentration of 50 nM are made in the assay buffer (10 mM Tris HCl, pH 7.2, 10 mM MgCl2, 0.05% NaN3 0.01% Tween-20, and 1 mM DTT). The enzyme and the substrate are then added to the assay plates in two consecutive additions of 10 μL, and then shaken to mix. The reaction is allowed to proceed at room temperature for 30 minutes. […] The enzymatic reaction is stopped by addition of 60 μL of the binding solution to each well of the assay plates and the plates are sealed and shaken for 10 seconds. The plate was incubated at room temperature for at least one hour prior to determining the fluorescence polarization (FP). The parallel and perpendicular fluorescence of each well of the plate was measured using a Perkin Elmer EnVision™ plate reader (Waltham, Mass.).
Fluorescence polarization (mP) was calculated from the parallel (S) and perpendicular (P) fluorescence of each sample well and the analogous values for the median control well, containing only substrate (So and Po), using the following equation: Polarization(mP)=1000*(S/So−P/Po)/(S/So+P/Po).
Dose-inhibition profiles for each compound were characterized by fitting the mP data to a four-parameter equation given below.

Chain of human PDE10A2 (Q9Y233 267-1055): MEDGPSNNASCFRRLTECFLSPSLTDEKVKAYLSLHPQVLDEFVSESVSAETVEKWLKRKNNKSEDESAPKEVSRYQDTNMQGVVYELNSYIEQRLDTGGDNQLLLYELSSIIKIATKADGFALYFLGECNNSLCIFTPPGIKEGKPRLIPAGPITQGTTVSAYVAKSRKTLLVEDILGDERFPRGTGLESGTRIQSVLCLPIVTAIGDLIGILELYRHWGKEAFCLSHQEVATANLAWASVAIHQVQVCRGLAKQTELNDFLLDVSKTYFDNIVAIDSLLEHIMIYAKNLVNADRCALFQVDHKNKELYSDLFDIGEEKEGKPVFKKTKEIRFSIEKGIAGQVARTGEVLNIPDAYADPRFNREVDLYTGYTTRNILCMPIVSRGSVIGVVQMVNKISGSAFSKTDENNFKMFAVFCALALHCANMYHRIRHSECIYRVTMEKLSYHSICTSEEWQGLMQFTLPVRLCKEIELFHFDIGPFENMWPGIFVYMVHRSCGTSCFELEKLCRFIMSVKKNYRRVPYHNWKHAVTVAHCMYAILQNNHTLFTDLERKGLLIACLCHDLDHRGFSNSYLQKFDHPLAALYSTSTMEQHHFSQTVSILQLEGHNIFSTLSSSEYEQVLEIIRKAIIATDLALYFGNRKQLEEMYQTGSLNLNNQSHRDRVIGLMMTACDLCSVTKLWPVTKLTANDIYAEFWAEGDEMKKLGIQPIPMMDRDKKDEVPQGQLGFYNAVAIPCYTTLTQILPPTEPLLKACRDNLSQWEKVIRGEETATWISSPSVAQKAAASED

Row | SMILES | Ki [nM]
1 | Cc1ncc(-c2cn(C)nc2CO)c(OC[C@H]2C[C@@H]2c2ccccn2)n1 [Example 116, (1-methyl-4-(2-methyl-4-(((1S,2S)-2-(pyridin-2-yl)cyclopropyl)methoxy)pyrimidin-5-yl)-1H-pyrazol-3-yl)methanol] | 9.01
2 | Cc1ncc(-c2ccc(CO)cc2)c(OC[C@H]2C[C@@H]2c2ccc3ccccc3n2)n1 (single isomer, unassigned) [Example 38] | 0.03
3 | Cc1ccc([C@H]2C[C@@H]2COc2nc(C)ncc2-c2ccc(OC(C)C)nc2C)nc1 [Example 61, 5-(6-isopropoxy-2-methylpyridin-3-yl)-2-methyl-4-(((1S,2S)-2-(5-methylpyridin-2-yl)cyclopropyl)methoxy)pyrimidine] | 1.51
4 | CCc1ccc([C@H]2C[C@@H]2COc2nc(C)ncc2-c2cn(C)nc2C(C)O)nc1 (stereo partly drawn) [Example 162, 1-(4-(4-(((1S,2S)-2-(5-ethylpyridin-2-yl)cyclopropyl)methoxy)-2-methylpyrimidin-5-yl)-1-methyl-1H-pyrazol-3-yl)ethanol] | 0.13
5 | COc1ccc([C@H]2C[C@@H]2COc2nc(C)ncc2-c2ccc(C3(O)CCCC3)nc2)nc1 [Example 89, 1-(5-(4-(((1S,2S)-2-(5-methoxypyridin-2-yl)cyclopropyl)methoxy)-2-methylpyrimidin-5-yl)pyridin-2-yl)cyclopentanol] | 0.06
6 | Cc1ncc(C2CCC3(CC2)OCCO3)c(OC[C@H]2C[C@@H]2c2ccc3ccccc3n2)n1 [Example 190, 2-((1S,2S)-2-((2-methyl-5-(1,4-dioxaspiro[4.5]decan-8-yl)pyrimidin-4-yloxy)methyl)cyclopropyl)quinoline] | 0.06
7 | Cc1ccc([C@H]2C[C@@H]2COc2nc(C)ncc2-c2cc(O)ccn2)nc1 [Example 53, 2-(2-methyl-4-(((1S,2S)-2-(5-methylpyridin-2-yl)cyclopropyl)methoxy)pyrimidin-5-yl)pyridin-4-ol] | 25.5
8 | Cc1ncc(-c2ccc(C(C)(C)O)nc2C)c(OC[C@H]2C[C@@H]2c2ccccn2)n1 [Example 119, 2-(6-methyl-5-(2-methyl-4-(((1S,2S)-2-(pyridin-2-yl)cyclopropyl)methoxy)pyrimidin-5-yl)pyridin-2-yl)propan-2-ol] | 2.15
9 | Cc1ccc([C@H]2C[C@@H]2COc2nc(C)ncc2-c2ccnc(F)c2)nc1 [Example 19, 5-(2-fluoropyridin-4-yl)-2-methyl-4-(((1S,2S)-2-(5-methylpyridin-2-yl)cyclopropyl)methoxy)pyrimidine] | 0.55
10 | COc1ccc([C@H]2C[C@@H]2COc2nc(C)ncc2C2CCCC(=O)C2)nc1 (stereo partly drawn) [Example 207, 3-(4-(((1S,2S)-2-(5-Methoxypyridin-2-yl)cyclopropyl)methoxy)-2-methylpyrimidin-5-yl)cyclohexanone] | 0.48
11 | COc1ccc([C@H]2C[C@@H]2COc2nc(C)ncc2-c2ccc(C(=O)O)cc2)nc1 [Example 172, 4-(4-(((1S,2S)-2-(5-methoxypyridin-2-yl)cyclopropyl)methoxy)-2-methylpyrimidin-5-yl)benzoic acid] | 0.29
12 | COc1cc(-c2cnc(C)nc2OC[C@H]2C[C@@H]2c2ccc3ccccc3n2)cc2nccn12 [Example 131, 2-((1S,2S)-2-((5-(5-methoxyimidazo[1,2-a]pyridin-7-yl)-2-methylpyrimidin-4-yloxy)methyl)cyclopropyl)quinoline] | 0.04
13 | Cc1ccc([C@H]2C[C@@H]2COc2nc(C)ncc2C2CCCCC2)nc1 [Example 208, 5-Cyclohexyl-2-methyl-4-(((1S,2S)-2-(5-methylpyridin-2-yl)cyclopropyl)methoxy)pyrimidine] | 2.28
14 | Cc1ncc(-c2ccc(C(F)(F)F)nc2)c(OC[C@H]2C[C@@H]2c2ccc3ccccc3n2)n1 [Example 156, 2-((1S,2S)-2-((2-methyl-5-(6-(trifluoromethyl)pyridin-3-yl)pyrimidin-4-yloxy)methyl)cyclopropyl)quinoline] | 0.12
15 | COc1ccc([C@H]2C[C@@H]2COc2nc(C)ncc2-c2ccnc(N)c2C#N)nc1 [Example 108, 2-amino-4-(4-(((1S,2S)-2 (5-methoxypyridin-2-yl)cyclopropyl)methoxy)-2-methylpyrimidin-5-yl)nicotinonitrile] | 3.75

More lines, now with the values ahead:

Row | Ki [nM] | SMILES
16 | 0.9 | COc1ccc([C@H]2C[C@@H]2COc2nc(C)ncc2-c2cc(=O)[nH][nH]2)nc1 [Example 241, 5-(4-(((1S,2S)-2-(5-methoxypyridin-2-yl)cyclopropyl)methoxy)-2-methylpyrimidin-5-yl)-1,2-dihydropyrazol-3-one]
17 | 2.44 | Cc1ccc([C@H]2C[C@@H]2COc2nc(C)ncc2-c2ccc(C)cc2C)nc1 [Example 2, 5-(2,4-dimethylphenyl)-2-methyl-4-(((1S,2S)-2-(5-methylpyridin-2-yl)cyclopropyl)methoxy)pyrimidine]
18 | 2.02 | COc1ccc([C@H]2C[C@@H]2COc2nc(C)ncc2-c2ccc(-c3nnn(C)n3)cc2)nc1 [Example 223, 4-(((1S,2S)-2-(5-methoxypyridin-2-yl)cyclopropyl)methoxy)-2-methyl-5-(4-(2-methyl-2H-tetrazol-5-yl)phenyl)pyrimidine]
19 | 5.6 | COc1ccc([C@H]2C[C@@H]2COc2nc(C)ncc2[C@H]2CC[C@@H](O)C2)nc1 [Example 79, (1R,3S)-3-(4-(((1S,2S)-2-(5-methoxypyridin-2-yl)cyclopropyl)methoxy)-2-methylpyrimidin-5-yl)cyclopentanol]
20 | 12.6 | Cc1ccc([C@H]2C[C@@H]2COc2nc(C)ncc2[C@H]2CC[C@@H](C(C)(C)O)CC2)nc1 [Example 221, (cis)2-(4-(2-methyl-4-(((1S,2S)-2-(5-methylpyridin-2-yl)cyclopropyl)methoxy)pyrimidin-5-yl)cyclohexyl)propan-2-ol]
21 | 15.7 | COc1ccc([C@H]2C[C@@H]2COc2nc(C)ncc2-c2nn[nH]c2CO)nc1 [Example 249, (4-(4-(((1S,2S)-2-(5-methoxypyridin-2-yl)cyclopropyl)methoxy)-2-methylpyrimidin-5-yl)-1H-1,2,3-triazol-5-yl)methanol]
22 | 0.12 | COc1ccc([C@H]2C[C@@H]2COc2nc(C)ncc2-c2ccc(C3(O)CCC3)nc2)nc1 [Example 92, 1-(5-(4-(((1S,2S)-2-(5-methoxypyridin-2-yl)cyclopropyl)methoxy)-2-methylpyrimidin-5-yl)pyridin-2-yl)cyclobutano1]
23 | 3.25 | Cc1ccc([C@H]2C[C@@H]2COc2nc(C)ncc2-c2ccc3[nH]ccc3c2)nc1 [Example 48, 5-(2-methyl-4-(((1S,2S)-2-(5-methylpyridin-2-yl)cyclopropyl)methoxy)pyrimidin-5-yl)-1H-indole]
24 | 6.6 | COc1ccc([C@H]2C[C@@H]2COc2nc(C)ncc2-c2cnnn2C(F)F)nc1 [Example 246, 5-(3-(difluoromethyl)-3H-1,2,3-triazol-4-yl)-4-(((1S,2S)-2-(5-methoxypyridin-2-yl)cyclopropyl)methoxy)-2-methylpyrimidine]
25 | 0.63 | Cc1ccc([C@H]2C[C@@H]2COc2nc(C)ncc2-c2ccc3nccn3c2)nc1 [Example 137, 6-(2-methyl-4-(((1S,2S)-2-(5-methylpyridin-2-yl)cyclopropyl)methoxy)pyrimidin-5-yl)imidazo[1,2-a]pyridine]
26 | 0.64 | COc1ccc([C@H]2C[C@@H]2COc2nc(C)ncc2-c2ccc(C(=O)NCCO)nc2)nc1 [Example 106, N-(2-hydroxyethyl)-5-(4-(((1S,2S)-2-(5-methoxypyridin-2-yl)cyclopropyl)methoxy)-2-methylpyrimidin-5-yl)picolinamide]
